Data set [1] concerns the target T1, human NHE3 (Homo sapiens, UniProt P48764).
T1 construct: expressed in transfected cells; host or cells: OK26 cells (opossum kidney OK cells); OK26 ND sublines with opNHE1 reduced by 90% for A3
T1 sequence (P48764 26-834): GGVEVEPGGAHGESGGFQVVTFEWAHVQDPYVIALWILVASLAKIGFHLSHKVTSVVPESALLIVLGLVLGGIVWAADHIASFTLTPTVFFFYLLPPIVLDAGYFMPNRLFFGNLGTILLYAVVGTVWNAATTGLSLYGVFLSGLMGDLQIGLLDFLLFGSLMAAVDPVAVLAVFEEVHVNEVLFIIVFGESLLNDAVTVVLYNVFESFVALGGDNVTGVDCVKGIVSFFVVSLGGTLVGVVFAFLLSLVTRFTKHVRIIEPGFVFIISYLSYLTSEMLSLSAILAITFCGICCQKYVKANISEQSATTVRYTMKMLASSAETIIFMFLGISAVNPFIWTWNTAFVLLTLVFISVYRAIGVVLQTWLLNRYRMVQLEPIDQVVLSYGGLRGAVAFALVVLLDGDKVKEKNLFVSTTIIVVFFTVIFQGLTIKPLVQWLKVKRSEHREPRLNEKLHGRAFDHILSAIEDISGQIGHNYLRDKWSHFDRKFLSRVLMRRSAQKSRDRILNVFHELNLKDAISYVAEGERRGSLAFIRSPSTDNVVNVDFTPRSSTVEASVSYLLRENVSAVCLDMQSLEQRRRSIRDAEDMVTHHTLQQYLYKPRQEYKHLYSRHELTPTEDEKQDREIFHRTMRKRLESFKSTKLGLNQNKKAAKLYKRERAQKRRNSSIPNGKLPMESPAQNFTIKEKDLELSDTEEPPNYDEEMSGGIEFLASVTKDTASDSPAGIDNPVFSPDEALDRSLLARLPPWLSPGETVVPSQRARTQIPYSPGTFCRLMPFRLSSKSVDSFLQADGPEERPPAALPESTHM
As to the kind of experiment: Measurements of NHE3 inhibitory activities (OK26 cells). The settings on record: OK26 cells (opossum kidney cells overexpressing human NHE3), measurement time 5 minutes at 37° C.; read-out: hNHE3 IC50. In kind it is cell-based. Here is the method:
HLF cells (Human hepatoma cell line) were used as cells for the test. After 1×10^4 cells/well were seeded to a 96-well plate and cultured for 3 days, they were cultured overnight under a serum-free medium. Then, the cells were incubated in a stain solution of Tetramethylammonium (TMA) Buffer (130 mM TMA-C1, 5 mM KCl, 2 mM CaCl2, 1 mM MgSO2, 25 mM glucose, 20 mM HEPES; pH 7.4) containing 40 mM NH4Cl and 1 μg/mL pH-sensitive fluorescent indicator BCECF-AM at 37° C. for 40 minutes and then BCECF was introduced into the cells. After the cells were washed once with TMA Buffer and incubated in TMA+40 mM NH4Cl solution at 37° C. for 15 minutes, the solution was removed and 20 μL/well of TMA Buffer and 10 μL/well of each test compound solution prepared with TMA Buffer were added to each well. The measurements were carried out by adding 200 μL/well of Na Buffer (130 mM, NaCl, 5 mM KCl, 2 mM CaCl2, 1 mM MgSO2, 1 mM NaH2PO4, 25 mM glucose, 20 mM HEPES; pH 7.4) or TMA Buffer (for base measurement), immediately placing it on FlexStation (Molecular Device) and then, after 10 minutes, measuring, it the two wavelengths of 505 nm (excitation wavelength)/530 nm (emission wavelength) (measurement value) and 440 nm (excitation wavelength)/530 nm (emission wavelength) (isosbestic point value). A NHE activity was calculated by dividing a measurement value by an isosbestic point value and a NHE1 inhibitory activity was calculated by the following equation. NHE1 inhibitory activity (%)=100×(1−(Measurement value [addition of each compound]−Base [addition of TMA Buffer])/(Control [addition of Na Buffer]−Base [addition of TMA Buffer]))
Pharmacological Test Example 2: Measurements of NHE3 Inhibitory Activities.
OK26 cells (OK (opossum kidney) cells in which human NHE3 genes are overexpressed) were used as cells for the test. The measurements were carried out in the same manner as described in Pharmacological Test Example 1 except that the measurement time was 5 minutes (at 37° C.) to calculate NHE3 inhibitory activities.

The nature of data set [2]: MDCK membrane permeability (trans-well). In kind it is in vitro ADME, Canine. The settings on record: dog, apical pH 6.5 / basal pH 7.4, 37° C. The procedure: Pharmacological Test Example 4: MDCK Membrane Permeability
1×10^6 MDCK (MADIN-DARBY Canine Kidney) cells were seeded to each well and cultivated on a trans-well for 4 days (Mixed medium; DMEM: F12=1:1). The trans-well consists of a upper chamber into which cells are seeded and a lower chamber which is separated by a porous membrane and each test compound added into the upper chamber penetrates through the porous membrane to be detected in the lower chamber. The trans-well system has been used as a model for cell membrane permeability.
Buffer solution (pH 6.5) (138 mM NaCl, 2.7 mM KCl, 25 mM D-Glucose, 20 mM MES, 1.25 mM CaCl2, 0.5 mM MgCl2; pH was adjusted with KOH) was added into the upper chamber (Apical side) while Buffer solution (pH 7.4) (138 mM NaCl, 2.7 mM KCl, 25 mM D-Glucose, 20 mM HEPES, 1.25 mM CaCl2, 0.5 mM MgCl2; pH was adjusted with KOH) was added into the lower chamber (basal side). After it was pre-incubated at 37° C. for 20 minutes, 50 μM of each test compound was added thereto and then reacted at 37° C. for 1 hour. The solutions in the upper and lower chambers were collected and the concentrations of each test compound were determined by LC/MS to calculate membrane permeability values (Pm values) by the following equation. Pm[cm/sec]=(Concentration of each test compound in the basal side×1.5 mL)/(3600 sec×1.12 cm^2×Initial concentration of the added compound)

Data set [3] deals with renal dysfunction model rats. As to the kind of experiment: Continuous administration test in renal dysfunction model rats. In kind it is in vivo, Wistar rats. Here is the method:
Pharmacological Test Example 5: Continuous Administration Test in Renal Dysfunction Model Rats
After unilateral nephrectomy was performed on 7-week-old Wistar rats and the rats were habituated for 1 week, they were divided into 4 groups based on their body weights, Normal group, Vehicle group, 20 mg/kg of the compound of Example 7-administered group and 50 mg/kg of the compound of Example 7-administered group were assigned to 5 rats, respectively. After the rats were habituated in metabolic cages for 4 days, the test compound the compound of Example 7) dissolved in 0.5% methylcellulose solution was administered via gavage simultaneously with intraperitoneal administration of oleic acid-containing bovine serum albumin (OA-BSA) at a dose of 2 g/animal once daily for 4 days. Vehicles (0.5% methylcellulose solution) were administered to Normal group and Vehicle group instead of the test compound (the compound of Example 7). In addition, no oleic acid-containing bovine serum albumin was administered to Normal group and only unilateral nephrectomy was performed on the Normal group rats. Urine samples were collected from each rat on the last administration day to the next day of the last administration, and blood sampling and autopsy were conducted on the same day.

Setting [4] is: test compound-administered groups (20 and 50 mg/kg), 4 days, FIG. 2.

In the case of `COC(=O)c1ccc(-c2ccccc2/C=C(\C)C(=O)NC(=N)N)cc1` [Example 7, (E)-2′-(3-guanidino-2-methyl-3-oxo-propenyl)-biphenyl-4-carboxylic acid methyl ester], the IC50 in data set [1] is over 10 µM. Besides, in data set [2], the Papp A→B at 1 h, 50 μM amounted to 2 ×10⁻⁶ cm/s. In data set [3] (20 mg/kg and 50 mg/kg via gavage once daily for 4 days, OA-BSA i.p., unilaterally nephrectomized rats, FIG. 1), the “tubular damages (beta 2-microglobulin, marker for tubular damage)” value is recorded as “Significant improvements in tubular damages”. The tubular damage scores entry in data set [3] (test compound administered groups (20 and 50 mg/kg), 4 days, FIG. 3) is “Reductions in tubular damage scores”. Also, in data set [3] (setting [4]), the “appearances of urinary cast (renal pathological images)” value is recorded as “significant reductions in appearances of urinary cast” and the “dilation of proximal renal tubules (renal pathological images)” value is reported as “improvements in dilation of proximal renal tubules”.

The IC50 is the concentration that inhibits the measured activity by half. For orientation: Papp A→B means how fast a substance crosses the layer from the apical side. A high value points to ready permeation.
